{
  "source": "patent US8796457B2",
  "about": "“Compound useful for the treatment of degenerative and inflammatory diseases” (Galapagos NV, priority 2009, dated 2014)",
  "key": {"[1]": {"molecular_target": "JAK1 (Homo sapiens (Human), UniProt P23458)", "sequence (P23458 866-1154)": "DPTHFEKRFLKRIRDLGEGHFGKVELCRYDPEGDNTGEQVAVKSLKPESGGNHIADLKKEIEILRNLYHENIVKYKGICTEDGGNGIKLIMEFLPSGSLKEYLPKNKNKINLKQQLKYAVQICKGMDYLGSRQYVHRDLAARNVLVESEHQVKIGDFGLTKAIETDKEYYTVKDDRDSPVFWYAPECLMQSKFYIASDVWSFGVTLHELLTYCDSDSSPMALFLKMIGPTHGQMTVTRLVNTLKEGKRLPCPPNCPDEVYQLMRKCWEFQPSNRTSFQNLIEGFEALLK", "experiment": "JAK1 Ki determination assay (Ulight-JAK-1 peptide)", "assay_type": "biochemical", "conditions": "Lineweaver-Burk; Ulight-JAK-1 (Tyr1023) peptide, alternative protocol", "method": "Alternatively, for the determination of Ki, different amounts of inhibitor were mixed with the enzyme and the enzymatic reaction was followed as a function of ATP concentration. The Ki was determined by means of double reciprocal plotting of Km vs compound concentration (Lineweaver-Burk plot). 1 ng of JAK1 (Invitrogen, PV4774) was used in the assay. The substrate was 50 nM Ulight-JAK-1 ([MUT]) Peptide (Perkin Elmer, TRF0121) The reaction was performed in 25 mM MOPS pH 6.8, 0.01%, 2 mM DTT, 5 mM MgCl2 Brij-35 with varying concentrations of ATP and compound. Phosphorylated substrate was measured using an Eu-labeled anti-phosphotyrosine antibody PT66 (Perkin Elmer, AD0068). Readout was performed on the envision (Perkin Elmer) with excitation at 320 nm and emission followed at 615 nm and 665 nm."}, "[2]": {"molecular_target": "Recombinant human JAK3 catalytic domain (Homo sapiens (Human), UniProt P52333)", "sequence (P52333 781-1124)": "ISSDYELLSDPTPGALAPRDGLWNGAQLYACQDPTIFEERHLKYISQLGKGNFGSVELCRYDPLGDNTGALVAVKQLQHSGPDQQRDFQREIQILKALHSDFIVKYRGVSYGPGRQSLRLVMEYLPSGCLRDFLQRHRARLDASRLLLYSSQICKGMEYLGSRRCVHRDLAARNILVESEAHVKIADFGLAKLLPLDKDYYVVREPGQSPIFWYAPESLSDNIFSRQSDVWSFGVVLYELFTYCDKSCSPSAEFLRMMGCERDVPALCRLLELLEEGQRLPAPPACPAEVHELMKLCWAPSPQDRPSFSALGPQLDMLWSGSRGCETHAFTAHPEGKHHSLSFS", "experiment": "JAK3 inhibition assay", "assay_type": "biochemical", "conditions": "average ± standard error of the mean; 1 μM ATP", "description": "Recombinant human JAK3 catalytic domain (amino acids 781-1124; catalog number PV3855) was purchased from Invitrogen. 0.025 mU of JAK3 was incubated with 2.5 μg polyGT substrate (Sigma catalog number P0275) in kinase reaction buffer (25 mM Tris pH 7.5, 0.5 mM EGTA, 0.5 mM Na3VO4, 5 mM b-glycerolphosphate, 0.01% Triton X-100, 1 μM non-radioactive ATP, 0.25 μCi ^33P-gamma-ATP (GE Healthcare, catalog number AH9968) final concentrations) with or without 5 μL containing test compound or vehicle (DMSO, 1% final concentration), in a total volume of 25 μL, in a polypropylene 96-well plate (Greiner, V-bottom). After 105 min at 30° C., reactions were stopped by adding of 25 μL/well of 150 mM phosphoric acid. […] 40 μL/well of Microscint-20 was added, the top of the plates was sealed and readout was performed using the Topcount (Perkin Elmer). Kinase activity was calculated by subtracting counts per minute (cpm) obtained in the presence of a positive control inhibitor (10 μM staurosporine) from cpm obtained in the presence of vehicle. The ability of a test compound to inhibit this activity was determined as: Percentage inhibition=((cpm determined for sample with test compound present−cpm determined for sample with positive control inhibitor) divided by (cpm determined in the presence of vehicle−cpm determined for sample with positive control inhibitor))*100. […]"}, "[3]": {"test_system": "TNF release", "experiment": "Septic shock model (LPS induced TNF release)", "assay_type": "in vivo, mouse", "conditions": "30 mg/kg po, LPS ip, statistically significant", "description": "Injection of lipopolysaccharide (LPS) induces a rapid release of soluble tumour necrosis factor (TNF-alpha) into the periphery. This model is used to analyse prospective blockers of TNF release in vivo.\nSix BALB/cJ female mice (20 g) per group are treated at the intended dosing once, po. Thirty minutes later, LPS (15 μg/kg; E. Coli serotype 0111:B4) is injected ip. Ninety minutes later, mice are euthanized and blood is collected. Circulating TNF alpha levels are determined using commercially available ELISA kits. Dexamethasone (5 μg/kg) is used as a reference anti-inflammatory compound. Selected compounds are tested at one or multiple doses, e.g. 3 and/or 10 and/or 30 mg/kg, po."}, "[4]": {"molecular_target": "Recombinant human JAK2 (catalytic domain) (Homo sapiens (Human), UniProt O60674)", "sequence (O60674 849-1124)": "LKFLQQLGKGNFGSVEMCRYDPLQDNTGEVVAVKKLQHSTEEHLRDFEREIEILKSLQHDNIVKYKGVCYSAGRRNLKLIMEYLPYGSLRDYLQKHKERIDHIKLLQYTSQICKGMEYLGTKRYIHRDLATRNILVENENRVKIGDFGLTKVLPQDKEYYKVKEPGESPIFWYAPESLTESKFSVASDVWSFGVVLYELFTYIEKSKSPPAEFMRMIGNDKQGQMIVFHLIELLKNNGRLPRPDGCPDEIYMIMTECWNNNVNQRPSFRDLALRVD", "experiment": "JAK2 inhibition assay", "assay_type": "biochemical", "conditions": "average ± standard error of the mean; 7.5 μM ATP", "description": "Recombinant human JAK2 (catalytic domain, amino acids 866-1154; catalog number PV4210) was purchased from Invitrogen. 0.0125 mU of JAK2 was incubated with 25 nM Ulight-JAK1(tyr1023) peptide (Perkin Elmer catalog number TRF0121) in kinase reaction buffer (41.66 mM HEPES pH7.0, 0.016% Triton X-100, 12.5 mM MgCl2, 3.33 mM DTT, 7.5 μM ATP) with or without 4 μL containing test compound or vehicle (DMSO, 1% final concentration), in a total volume of 20 μL, in a white 384 Luminotrac 200 plate (Greiner, catalog number 781075). […] Readout is performed using the Envision with excitation at 320nm and measuring emission at 615 nm (Perkin Elmer). Kinase activity was calculated by subtracting relative fluorescence units (RFU) obtained in the presence of a positive control inhibitor (10 μM staurosporine) from RFU obtained in the presence of vehicle. The ability of a test compound to inhibit this activity was determined as: Percentage inhibition=((RFU determined for sample with test compound present−RFU determined for sample with positive control inhibitor) divided by (RFU determined in the presence of vehicle−RFU determined for sample with positive control inhibitor))*100. […]"}},
  "data": [
    {"smiles": "CC1(C)CN(C(=O)c2ccc(-c3cccc4nc(NC(=O)C5CC5)nn34)cc2)C1", "note": "[Compound 1, Cyclopropanecarboxylic acid{5-[4-(3,3-dimethyl-azetidine-1-carbonyl)-phenyl]-[1,2,4]triazolo[1,5-a]pyridin-2-yl}-amide]", "values": [
      {"measurement": "Ki", "setting": "[1]", "result": 5.6, "unit": "nM"},
      {"measurement": "IC50", "setting": "[2]", "result": "408 ± 62", "unit": "nM"},
      {"measurement": "reduction in the TNF release", "setting": "[3]", "result": "> 50", "unit": "%"},
      {"measurement": "IC50", "setting": "[4]", "result": "67 ± 5", "unit": "nM"}
    ]}
  ]
}
